≈ marks a conversion by molar mass, not a printed value.
Columns and labels:
Assay type in all cases: cell-based
Proteus vulgaris HX-19 = experiment: Antibacterial activity, agar-dilution MIC, organism No. 21; details: Organism No. 21, bouillon-agar; for MIC: Proteus vulgaris, HX19, read-out: Minimum Inhibitory Concentration
Summary of the method: (§1)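 Specimen is incorporated into bouillon-agar medium at graded levels and the organisms are tested on these plates. The lowest level preventing growth is taken as the MIC (μg/ml of medium).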

[1] = system: Streptococcus faecium IFO 3826; experiment: Antibacterial activity, agar-dilution MIC, organism No. 27; details: Organism No. 27, bouillon-agar; for MIC: Enterococcus faecium, IFO3826, read-out: Minimum Inhibitory Concentration
Summary of the method: as §1

Enterobacter cloacae 963 = experiment: Antibacterial activity, agar-dilution MIC, organism No. 24; details: Organism No. 24, bouillon-agar; for MIC: Enterobacter cloacae, 963, read-out: Minimum Inhibitory Concentration
Summary of the method: as §1

[2] = system: Enterobacter aerogenes ATCC 13048; experiment: Antibacterial activity, agar-dilution MIC, organism No. 23; details: Organism No. 23, bouillon-agar; for MIC: Klebsiella aerogenes, ATCC13048, read-out: Minimum Inhibitory Concentration
Summary of the method: as §1

[3] = system: Staphylococcus aureus FDA 209PJc-1; experiment: Antibacterial activity, agar-dilution MIC, organism No. 1; details: Organism No. 1, bouillon-agar; for MIC: Staphylococcus aureus, FDA209PJC1, read-out: Minimum Inhibitory Concentration
Summary of the method: as §1

[4] = system: Proteus morganii IFO 3848; experiment: Antibacterial activity, agar-dilution MIC, organism No. 18; details: Organism No. 18, bouillon-agar; for MIC: Morganella morganii, IFO3848, read-out: Minimum Inhibitory Concentration
Summary of the method: as §1

[5] = system: Pseudomonas aeruginosa NCTC 10490; experiment: Antibacterial activity, agar-dilution MIC, organism No. 16; details: Organism No. 16, bouillon-agar; for MIC: Pseudomonas aeruginosa, NCTC10490, read-out: Minimum Inhibitory Concentration
Summary of the method: as §1

Salmonella typhi 901 = experiment: Antibacterial activity, agar-dilution MIC, organism No. 9; details: for MIC: Salmonella enterica, TYPHI, read-out: Minimum Inhibitory Concentration
Summary of the method: as §1

[6] = system: Streptococcus pyogenes IFO 3340; experiment: Antibacterial activity, agar-dilution MIC, organism No. 26; details: Organism No. 26, bouillon-agar; for MIC: Streptococcus pyogenes, IFO3340, read-out: Minimum Inhibitory Concentration
Summary of the method: as §1

[7] = system: Pseudomonas aeruginosa IFO 3445; experiment: Antibacterial activity, agar-dilution MIC, organism No. 15; details: Organism No. 15, bouillon-agar; for MIC: Pseudomonas aeruginosa, IFO3445, read-out: Minimum Inhibitory Concentration
Summary of the method: as §1

[8] = system: Micrococcus luteus ATCC 9341; experiment: Antibacterial activity, agar-dilution MIC, organism No. 25; details: Organism No. 25, bouillon-agar; for MIC: Micrococcus luteus, ATCC9341, read-out: Minimum Inhibitory Concentration
Summary of the method: as §1

[9] = system: Candida albicans IAM 4905; experiment: Antifungal activity, agar-dilution MIC, organism No. 29; details: Organism No. 29, bouillon-agar; for MIC: Candida albicans, IAM4905, read-out: Minimum Inhibitory Concentration
Summary of the method: as §1

[10] = system: Serratia marcescens IAM 1184; experiment: Antibacterial activity, agar-dilution MIC, organism No. 13; details: Organism No. 13, bouillon-agar; for MIC: Serratia marcescens, IAM1184, read-out: Minimum Inhibitory Concentration
Summary of the method: as §1

[11] = system: Escherichia coli NIHJ-JC-2; experiment: Antibacterial activity, agar-dilution MIC, organism No. 5; details: Organism No. 5, bouillon-agar; for MIC: Escherichia coli, NIHJJC2, read-out: Minimum Inhibitory Concentration
Summary of the method: as §1

[12] = system: Staphylococcus aureus Terajima; experiment: Antibacterial activity, agar-dilution MIC, organism No. 2; details: Organism No. 2, bouillon-agar; for MIC: Staphylococcus aureus, read-out: Minimum Inhibitory Concentration
Summary of the method: as §1

[13] = system: Mycoplasma pneumoniae IID817; experiment: Antimycoplasmal activity, MIC by phenol red colour change, organism No. 28; details: Organism No. 28, PPLO broth + 1% glucose, 37° C.; for MIC: Mycoplasma, IID817, read-out: Minimum Inhibitory Concentration (MIC)
Description: Mycoplasma pneumoniae IID817 was used as the test microorganism in a culture medium prepared by adding 1% of glucose to "PPLO broth (manufactured by Difco Co.) liquid culture medium" at 37° C. with phenol red as an indicator, thereby culturing the test microorganism.

[14] = system: Salmonella shottmuelleri 8006; experiment: Antibacterial activity, agar-dilution MIC, organism No. 11; details: Organism No. 11, bouillon-agar; for MIC: Salmonella, 8006, read-out: Minimum Inhibitory Concentration
Summary of the method: as §1

[15] = system: Proteus mirabilis IFO 3849; experiment: Antibacterial activity, agar-dilution MIC, organism No. 19; details: Organism No. 19, bouillon-agar; for MIC: Proteus mirabilis, IFO3849, read-out: Minimum Inhibitory Concentration
Summary of the method: as §1

[16] = system: Pseudomonas aeruginosa PAO 1; experiment: Antibacterial activity, agar-dilution MIC, organism No. 17; details: Organism No. 17, bouillon-agar; for MIC: Pseudomonas aeruginosa, PAO1, read-out: Minimum Inhibitory Concentration
Summary of the method: as §1

[17] = system: Salmonella enteritidis G 14; experiment: Antibacterial activity, agar-dilution MIC, organism No. 12; details: Organism No. 12, bouillon-agar; for MIC: Salmonella enterica, ENTERITIDIS, read-out: Minimum Inhibitory Concentration
Summary of the method: as §1

[18] = system: Streptococcus pyogenes Cook; experiment: Antibacterial activity, agar-dilution MIC, organism No. 4; details: Organism No. 4, bouillon-agar; for MIC: Streptococcus pyogenes, read-out: Minimum Inhibitory Concentration
Summary of the method: as §1

[19] = system: Salmonella paratyphi-A 1015; experiment: Antibacterial activity, agar-dilution MIC, organism No. 10; details: for MIC: Salmonella enterica, PARATYPHI, read-out: Minimum Inhibitory Concentration
Summary of the method: as §1

[20] = system: Escherichia coli K12 C600 IAM 1264; experiment: Antibacterial activity, agar-dilution MIC, organism No. 6; details: Organism No. 6, bouillon-agar; for MIC: Escherichia coli, IAM1264, read-out: Minimum Inhibitory Concentration
Summary of the method: as §1

[21] = system: Bacillus subtilis ATCC 6633; experiment: Antibacterial activity, agar-dilution MIC, organism No. 14; details: Organism No. 14, bouillon-agar; for MIC: Bacillus subtilis, ATCC6633, read-out: Minimum Inhibitory Concentration
Summary of the method: as §1

[22] = system: Salmonella typhimurium IID 971; experiment: Antibacterial activity, agar-dilution MIC, organism No. 8; details: Organism No. 8, bouillon-agar; for MIC: Salmonella enterica, read-out: Minimum Inhibitory Concentration
Summary of the method: as §1

[23] = system: Aspergillus niger IFO 6342; experiment: Antifungal activity, agar-dilution MIC, organism No. 30; details: Organism No. 30, bouillon-agar; for MIC: Aspergillus niger, IFO6342, read-out: Minimum Inhibitory Concentration
Summary of the method: as §1

[24] = system: Proteus rettgeri IFO 3850; experiment: Antibacterial activity, agar-dilution MIC, organism No. 22; details: Organism No. 22, bouillon-agar; for MIC: Providencia rettgeri, IFO3850, read-out: Minimum Inhibitory Concentration
Summary of the method: as §1

[25] = system: Klebsiella pneumoniae PCI-602; experiment: Antibacterial activity, agar-dilution MIC, organism No. 7; details: Organism No. 7, bouillon-agar; for MIC: Klebsiella pneumoniae, PCI602, read-out: Minimum Inhibitory Concentration
Summary of the method: as §1

[26] = system: Staphylococcus aureus MS 353; experiment: Antibacterial activity, agar-dilution MIC, organism No. 3; details: Organism No. 3, bouillon-agar; for MIC: Staphylococcus aureus, MS353, read-out: Minimum Inhibitory Concentration
Summary of the method: as §1

Proteus vulgaris OX-19 = experiment: Antibacterial activity, agar-dilution MIC, organism No. 20; details: Organism No. 20, bouillon-agar; for MIC: Proteus vulgaris, OX19, read-out: Minimum Inhibitory Concentration
Summary of the method: as §1

[C-]#[N+]C12CC3(/C=C/C(=O)Nc4ccc(SC)cc4)OC3C1O2 (stereo not drawn) [compound 76]
Minimum Inhibitory Concentration (Proteus vulgaris HX-19): 0.78 µg/mL
Minimum Inhibitory Concentration [1]: 1.56 µg/mL
Minimum Inhibitory Concentration (Enterobacter cloacae 963): 200 µg/mL
Minimum Inhibitory Concentration [2]: > 200 µg/mL
Minimum Inhibitory Concentration [3]: 0.39 µg/mL
Minimum Inhibitory Concentration [4]: 3.13 µg/mL
Minimum Inhibitory Concentration [5]: > 200 µg/mL
Minimum Inhibitory Concentration (Salmonella typhi 901; Organism No. 9, bouillon-agar): 25 µg/mL
Minimum Inhibitory Concentration [6]: 1.56 µg/mL
Minimum Inhibitory Concentration [7]: > 200 µg/mL
Minimum Inhibitory Concentration [8]: 50 µg/mL
Minimum Inhibitory Concentration [9]: 25 µg/mL
Minimum Inhibitory Concentration [10]: > 200 µg/mL
Minimum Inhibitory Concentration [11]: > 200 µg/mL
Minimum Inhibitory Concentration [12]: 1.56 µg/mL
Minimum Inhibitory Concentration (MIC) [13]: < 0.2
Minimum Inhibitory Concentration [14]: 1.56 µg/mL
Minimum Inhibitory Concentration [15]: > 200 µg/mL
Minimum Inhibitory Concentration [16]: > 200 µg/mL
Minimum Inhibitory Concentration [17]: > 200 µg/mL
Minimum Inhibitory Concentration [18]: 100 µg/mL
Minimum Inhibitory Concentration ([19]; Organism No. 10, bouillon-agar): 0.78 µg/mL
Minimum Inhibitory Concentration [20]: > 200 µg/mL
Minimum Inhibitory Concentration [21]: 12.5 µg/mL
Minimum Inhibitory Concentration [22]: > 200 µg/mL
Minimum Inhibitory Concentration [23]: 100 µg/mL
Minimum Inhibitory Concentration [24]: 100 µg/mL
Minimum Inhibitory Concentration [25]: 0.78 µg/mL
Minimum Inhibitory Concentration [26]: 0.78 µg/mL
Minimum Inhibitory Concentration (Proteus vulgaris OX-19): 1.56 µg/mL

[C-]#[N+]C12CC3(/C=C/C(=O)Nc4cc(C(=O)OC)ccc4OC)OC3C1O2 (stereo not drawn) [compound 77]
MIC (Proteus vulgaris HX-19): 100 µg/mL (≈ 281 µM)
MIC [1]: > 200 µg/mL
MIC (Enterobacter cloacae 963): > 200 µg/mL
MIC [2]: > 200 µg/mL
MIC [3]: > 200 µg/mL
MIC [4]: 200 µg/mL (≈ 561 µM)
MIC [5]: > 200 µg/mL
MIC (Salmonella typhi 901): > 200 µg/mL
MIC [6]: 6.25 µg/mL (≈ 17.5 µM)
MIC [7]: > 200 µg/mL
MIC [8]: 50 µg/mL (≈ 140 µM)
MIC [9]: > 200 µg/mL
MIC [10]: > 200 µg/mL
MIC [11]: > 200 µg/mL
MIC [12]: > 200 µg/mL
MIC [13]: 3.13 µg/mL
MIC [14]: > 200 µg/mL
MIC [15]: > 200 µg/mL
MIC [16]: > 200 µg/mL
MIC [17]: > 200 µg/mL
MIC [18]: > 200 µg/mL
MIC [19]: > 200 µg/mL
MIC [20]: > 200 µg/mL
MIC [21]: 100 µg/mL (≈ 281 µM)
MIC [22]: > 200 µg/mL
MIC [23]: 200 µg/mL (≈ 561 µM)
MIC [24]: 200 µg/mL (≈ 561 µM)
MIC [25]: 100 µg/mL (≈ 281 µM)
MIC [26]: > 200 µg/mL
MIC (Proteus vulgaris OX-19): > 200 µg/mL

[C-]#[N+]C12CC3(/C=C/C(=O)Nc4ccc(C(=O)c5ccccc5)cc4)OC3C1O2 (stereo not drawn) [compound 79]
MIC (Proteus vulgaris HX-19): 1.56 µg/mL (≈ 4.19 µM)
MIC [1]: 0.78 µg/mL (≈ 2.09 µM)
MIC (Enterobacter cloacae 963): > 200 µg/mL
MIC [2]: > 200 µg/mL
MIC [3]: 0.39 µg/mL (≈ 1.05 µM)
MIC [4]: 6.25 µg/mL (≈ 16.8 µM)
MIC [5]: > 200 µg/mL
MIC (Salmonella typhi 901): 200 µg/mL (≈ 537 µM)
MIC [6]: 0.78 µg/mL (≈ 2.09 µM)
MIC [7]: > 200 µg/mL
MIC [8]: > 200 µg/mL
MIC [9]: 0.39 µg/mL (≈ 1.05 µM)
MIC [10]: > 200 µg/mL
MIC [11]: > 200 µg/mL
MIC [12]: 0.78 µg/mL (≈ 2.09 µM)
MIC [13]: < 0.2 µg/mL
MIC [14]: 6.25 µg/mL (≈ 16.8 µM)
MIC [15]: > 200 µg/mL
MIC [16]: > 200 µg/mL
MIC [17]: > 200 µg/mL
MIC [18]: 3.13 µg/mL (≈ 8.41 µM)
MIC [19]: 3.13 µg/mL (≈ 8.41 µM)
MIC [20]: > 200 µg/mL
MIC [21]: 1.56 µg/mL (≈ 4.19 µM)
MIC [22]: > 200 µg/mL
MIC [23]: 3.13 µg/mL (≈ 8.41 µM)
MIC [24]: > 200 µg/mL
MIC [25]: 3.13 µg/mL (≈ 8.41 µM)
MIC [26]: 0.39 µg/mL (≈ 1.05 µM)
MIC (Proteus vulgaris OX-19): 1.56 µg/mL (≈ 4.19 µM)

— patent US4684664A, “Derivatives of β-(4-isocyano-1,2,3,4-diepoxycyclopentyl) acrylic acid” (Kureha Kagaku Kogyo Kabushiki Kaisha, priority 1984, dated 1987)
